Laboratory results as given in patent US20130203815A1, “CYTOKINE INHIBITORS” (PIRAMAL ENTERPRISES LIMITED, priority 2010, published 2013).
Counter-ions that a name gives are not always drawn.

Columns and labels:
Type in all cases: cell-based
TNF-α [1] = experiment: Whole blood cell culture assay, LPS-induced TNF-α release; conditions: Homo sapiens, at a concentration of 10 μM, LPS 1 μg/ml, 4.5 hours
Procedure: TNF-α production by lipopolysaccharide (LPS) in whole blood was measured according to the method described in literature (J. Immunol. Methods, 1991, 139, 233-240).
Blood was collected from healthy donors into potassium EDTA vacutainer tubes (Becton Dickinson) and diluted with RPMI (Roswell Park Memorial Institute) 1640 culture medium (Gibco BRL, Pasley, UK) containing 100 U/ml penicillin and 100 μg/ml streptomycin, (100× solution, Sigma Chemical Co. St Louis, Mo.) with no added serum. The white blood cell count was adjusted to 1×10^6 cells/ml and 100 it/well of the diluted blood was transferred into 96-well culture plates. Following cell plating, 79 μl of culture medium and 1 μl of the test compounds (final concentration 1 μM and 10 μM) dissolved in DMSO was added to the cells. The final concentration of DMSO was adjusted to 0.5%. 1 μl of vehicle (0.5% DMSO) was used as control. Rolipram (300 μM) was used as a standard compound. The plates were incubated for 30 minutes at 37° C. in an atmosphere of 5% CO2. Finally, 20 μl (10 μg/ml) per well of LPS (Escherchia coli 0127:B8, Sigma Chemical Co. St. Louis, Mo.) was added, for a final concentration of 1 μg/ml. Plates were incubated at 37° C. for 4.5 hours in an atmosphere of 5% CO2. Supernatants were harvested and assayed for TNF-α by ELISA as described by the manufacturer (OptiEIA ELISA sets, BD Biosciences, Pharmingen). Percent inhibition of TNF-α release in comparison to the control was calculated.

TNF-α [2] = experiment: hPBMCs assay, LPS-induced TNF-α; conditions: Homo sapiens, LPS 1 μg/ml, 5 hours, ELISA
Procedure: (§1) TNF-α production by lipopolysaccharides (LPS) in hPBMCs was measured according to the method described in literature (Physiol. Res., 2003, 52, 593-598). Blood was collected from healthy donors into Potassium EDTA vacutainer tubes (BD vacutainer). The PBMCs were isolated using gradient centrifugation in Histopaque-1077 solution (Sigma). Isolated PBMC were suspended in RPMI 1640 culture medium (Sigma-Aldrich Fine Chemicals, USA), containing 10% fetal bovine serum (FBS) (JRH, USA), 100 U/ml penicillin (Sigma Chemical Co. St Louis, Mo.) and 100 μg/ml streptomycin (Sigma Chemical Co. St Louis, Mo.). The cell concentration was adjusted to 1×10^6 cells/ml. The viability as determined by trypan blue dye exclusion was uniformly ≧98%. The cell suspension (100 μl) was added to the wells of a 96-well culture plate. Following cell plating, 79 μl of the culture medium and 1 μl of eight different concentrations of the test compounds (final concentration 0.03, 0.1, 0.3, 1, 3, 10, 30, 100 μg/ml) dissolved in DMSO were added to the cells. The final concentration of DMSO was adjusted to 0.5%. The vehicle (0.5 DMSO) was used as control. Rolipram (300 μM) was used as a standard compound. The plates were incubated for 30 minutes at 37° C. in an atmosphere of 5% CO2. Finally, 20 μl (10 μg/ml) per well of LPS, (Escherchia coli 0127:B8, Sigma Chemical Co., St. Louis, Mo.) was added, for a final concentration of 1 µg/ml. The plates were incubated at 37° C. for 5 hours in an atmosphere of 5% CO2. To assess the cytotoxic effect of the test compounds, the cellular viability test was performed using MTS (3-(4,5-dimethylthiazol-2-yl)-5-(3-carboxymethoxyphenyl)-2-(4-sulfonyl)-2H-tetrazolium) reagent after 5 hours of incubation. Supernatants were harvested and assayed for TNF-α, interleukin-1β (IL-1β), interleukin-6 (IL-6) and interleukin-8 (IL-8) by ELISA as described by the manufacturer. (OptiEIA ELISA sets, BD Biosciences, Pharmingen). […]

IL-1β = experiment: hPBMCs assay, LPS-induced IL-1β; conditions: Homo sapiens, LPS 1 μg/ml, 5 hours, ELISA
Procedure: as §1

IL-6 = experiment: hPBMCs assay, LPS-induced IL-6; conditions: Homo sapiens, LPS 1 μg/ml, 5 hours, ELISA
Procedure: as §1

IL-8 = experiment: hPBMCs assay, LPS-induced IL-8; conditions: Homo sapiens, LPS 1 μg/ml, 5 hours, ELISA
Procedure: as §1

## COc1cc(OC)c(C2CCN(C)C2CO)c(O)c1C(=O)C=Cc1ccc(Cl)cc1 (racemic) [Example 28, (+/−)3-(4-Chlorophenyl)-1-(2-hydroxy-3-(2-(hydroxymethyl)-1-methylpyrrolidin-3-yl)-4,6-dimethoxy-phenyl)prop-2-en-1-one]
TNF-α [1]
  inhibition at 10 µM: 30%

## COc1cc(OC)c(C2CCN(C)C2CO)c(O)c1C(=O)C=Cc1cccc(C)c1 (racemic) [Example 23, (+/−)1-(2-Hydroxy-3-(2-(hydroxymethyl)-1-methylpyrrolidin-3-yl)-4,6-dimethoxy-phenyl)-3-m-tolylprop-2-en-1-one]
TNF-α [1]
  inhibition at 10 µM: 32%

## COc1cc(OC)c(C2CCN(C)C2CO)c(O)c1C(=O)C=Cc1ccc(C)o1 (racemic) [Example 45, (+/−)1-(2-Hydroxy-3-(2-(hydroxymethyl)-1-methylpyrrolidin-3-yl)-4,6-dimethoxy-phenyl)-3-(5-methylfuran-2-yl)prop-2-en-1-one]
TNF-α [1]
  inhibition at 10 µM: 54%

## COc1cc(OC)c(C2CCN(C)C2CO)c(O)c1C(=O)C=Cc1ccccc1Cl (racemic) [Example 20, (+/−)3-(2-Chlorophenyl)-1-(2-hydroxy-3-(2-(hydroxymethyl)-1-methylpyrrolidin-3-yl)-4,6-dimethoxy-phenyl)prop-2-en-1-one hydrochloride]
TNF-α [1]
  inhibition at 10 µM: 66%
TNF-α [2]
  IC50: 900 nM
IL-1β
  IC50: 800 nM
IL-6
  IC50: 4900 nM
IL-8
  IC50: 6500 nM

## COc1cc(OC)c(C2CCN(C)C2CO)c(O)c1C(=O)C=Cc1ccc(F)cc1 (racemic) [Example 29, (+/−)3-(4-Fluorophenyl)-1-(2-hydroxy-3-(2-(hydroxymethyl)-1-methylpyrrolidin-3-yl)-4,6-dimethoxy-phenyl)prop-2-en-1-one]
TNF-α [1]
  inhibition at 10 µM: 31%

## COc1cc(OC)c(C2CCN(C)C2CO)c(O)c1C(=O)C=Cc1cccc(Br)c1 (racemic) [Example 21, (+/−)3-(3-Bromophenyl)-1-(2-hydroxy-3-(2-(hydroxymethyl)-1-methylpyrrolidin-3-yl)-4,6-dimethoxy-phenyl)prop-2-en-1-one]
TNF-α [1]
  inhibition at 10 µM: 61%
TNF-α [2]
  IC50: 800 nM
IL-1β
  IC50: 200 nM
IL-6
  IC50: 2300 nM
IL-8
  IC50: 5200 nM

## COc1cc(OC)c(C2CCN(C)C2CO)c(O)c1C(=O)C=Cc1cccnc1 (racemic) [Example 48, (+/−)1-(2-Hydroxy-3-(2-(hydroxymethyl)-1-methylpyrrolidin-3-yl)-4,6-dimethoxy-phenyl)-3-(pyridin-3-yl)prop-2-en-1-one]
TNF-α [1]
  inhibition at 10 µM: 61%

## COc1cc(OC)c(C2CN(C)C(=O)C2CO)c(O)c1C(=O)C=Cc1ccccc1Cl (racemic) [Example 39, (+/−)4-(3-(3-(2-Chlorophenyl)acryloyl)-2-hydroxy-4,6-dimethoxy-phenyl)-3-(hydroxymethyl)-1-methylpyrrolidin-2-one]
TNF-α [1]
  inhibition at 10 µM: 75%

## COc1cc(OC)c(C2CCN(C)C2CO)c(O)c1C(=O)C=Cc1cccc([N+](=O)[O-])c1 (racemic) [Example 25, (+/−)1-(2-Hydroxy-3-(2-(hydroxymethyl)-1-methylpyrrolidin-3-yl)-4,6-dimethoxy-phenyl)-3-(3-nitrophenyl)prop-2-en-1-one]
TNF-α [1]
  inhibition at 10 µM: 68%
TNF-α [2]
  IC50: 500 nM
IL-1β
  IC50: 100 nM
IL-6
  IC50: 2500 nM
IL-8
  IC50: 5400 nM
